# Measured values as given in PMC7349657, “Efficient Targeted Degradation via Reversible and Irreversible Covalent PROTACs” (Journal of the American Chemical Society, 2020).
# Key:
# [1] = target: T1, BTK (Homo sapiens, UniProt Q06187); test: Time course of BTK degradation in Ramos and Mino cells; format: cell-based; parameters: endogenous in cells; host or cells: Mino (ATCC CRL-3000), Ramos (ATCC CRL-1596), K562 (NCI-60); conditions: 100 nM PROTAC, Ramos cells (RC-3: Mino cells)
# Protocol: We followed the rate of BTK degradation facilitated by this compound series via a time course experiment in Ramos and Mino cells (Supporting Figure 3). The rates of degradation correlated well with the DC50 values observed after 24 h, with NC-1, IR-1, IR-2, and RC-3 degrading BTK within 2–4 h, while RC-2 and RC-1 required 6–24 h to reach maximum degradation.
# (§1) Ramos (ATCC, CRL-1596), Mino (ATCC, CRL-3000), or K562 (NCI-60) cell lines were counted and diluted to 10^6 cell/mL, using 1 mL per well in a 24-well plate, and U2OS (ATCC HTB-96) cells overexpressing human BTK WT or C481S mutant were grown using 2 mL in a six-well plate (see Supporting Information). Cells were incubated with 1% DMSO or compound in indicated concentrations for 24 h unless indicated differently, or cells were left untreated. Lysates were prepared as previously described,[29] and samples were measured for total protein quantification by bicinchoninic acid (BCA) assay (#23225 ThermoFisher Scientific) supplemented with 4× loading buffer including 20 mM DTT, heated to 70 °C for 10 min, loaded into 4% SDS-PAGE gel, run for 45 min at 140 mV, then transferred into a nitrocellulose membrane (Biorad) using a Trans-Blot Turbo transfer system (Biorad). The membrane was stained with Ponceau (Sigma) to validate transfer for 10 min in gentle agitation then destained for 1 h with MQ water. The membrane was blocked with Licor blocking buffer (LIC927-70001) for 1 h, washed three times for 5 min with TBS-T, incubated with primary antibody BTK (D3H5) rabbit mAb (CST; 8547 S) overnight (16 h) at 4 °C, washed three times for 5 min with TBS-T, and incubated with primary antibody against β-actin (CST; 3700) for 1 h at 25 °C. Membrane was washed three times for 5 min with TBS-T, incubated with fluorescent secondary antibodies anti-mouse IgG Alexa Fluor 647 (CST: 4410S) and anti-rabbit-IgG IRDye 800(LICOR: 926-32211) for 1 h, then washed three times for 5 min with TBS-T, dried, and immediately imaged and analyzed using Licor Odyssey CLx. Prism (GraphPad) software was used to calculate degradation levels. We used second-order polynomial fits to estimate DC50 and Dmax values.
# Supplementary Figure 3: BTK degradation time dependency.
# Ramos (PI3I, RC-1, I R-1, R C-2, I R-2, NC-1) or Mino ( RC-3) cells were treated with 100 nM of PROTAC or DMSO for indicated times, subsequently harvested for BTK levels measurement via western blot.
# (1 picture or pasted object on this page, not shown here)
# [2] = target: T1, BTK; test: Library screen of BTK abundance by Western blot in K562 or Mino cells; format: cell-based; parameters: endogenous in cells; host or cells: Mino (ATCC CRL-3000), Ramos (ATCC CRL-1596), K562 (NCI-60); conditions: 1 μM compound, 24 h
# Protocol: We incubated K562 or Mino cells with 1 μM of the compounds for 24 h and measured the abundance of BTK by Western blot (Supporting Figure 1). […] On the basis of compound RC-1 we synthesized additional compounds (Figure 1), RC-2 with a CH2 group replacing the oxygen nearest the β-carbon, their analogous acrylamides IR-1 and IR-2, and the noncovalent analogue NC-1. We also synthesized the cyanoacrylamide RC-3 (Figure 1), replacing the Cα hydrogens with methyl groups. Similar dimethylated cyanoacrylamides were reported to have improved cellular permeability.[34]
# Ramos (ATCC, CRL-1596), Mino (ATCC, CRL-3000), or K562 (NCI-60) cell lines were counted and diluted to 10^6 cell/mL, using 1 mL per well in a 24-well plate, and U2OS (ATCC HTB-96) cells overexpressing human BTK WT or C481S mutant were grown using 2 mL in a six-well plate (see Supporting Information). […] Lysates were prepared as previously described,[29] and samples were measured for total protein quantification by bicinchoninic acid (BCA) assay (#23225 ThermoFisher Scientific) supplemented with 4× loading buffer including 20 mM DTT, heated to 70 °C for 10 min, loaded into 4% SDS-PAGE gel, run for 45 min at 140 mV, then transferred into a nitrocellulose membrane (Biorad) using a Trans-Blot Turbo transfer system (Biorad). […]
# [3] = target: wild-type BTK (Homo sapiens, UniProt Q06187); test: In vitro kinase activity assay, wild-type BTK (Nanosyn)
# Chain of wild-type BTK (Q06187 whole entry, species assumed): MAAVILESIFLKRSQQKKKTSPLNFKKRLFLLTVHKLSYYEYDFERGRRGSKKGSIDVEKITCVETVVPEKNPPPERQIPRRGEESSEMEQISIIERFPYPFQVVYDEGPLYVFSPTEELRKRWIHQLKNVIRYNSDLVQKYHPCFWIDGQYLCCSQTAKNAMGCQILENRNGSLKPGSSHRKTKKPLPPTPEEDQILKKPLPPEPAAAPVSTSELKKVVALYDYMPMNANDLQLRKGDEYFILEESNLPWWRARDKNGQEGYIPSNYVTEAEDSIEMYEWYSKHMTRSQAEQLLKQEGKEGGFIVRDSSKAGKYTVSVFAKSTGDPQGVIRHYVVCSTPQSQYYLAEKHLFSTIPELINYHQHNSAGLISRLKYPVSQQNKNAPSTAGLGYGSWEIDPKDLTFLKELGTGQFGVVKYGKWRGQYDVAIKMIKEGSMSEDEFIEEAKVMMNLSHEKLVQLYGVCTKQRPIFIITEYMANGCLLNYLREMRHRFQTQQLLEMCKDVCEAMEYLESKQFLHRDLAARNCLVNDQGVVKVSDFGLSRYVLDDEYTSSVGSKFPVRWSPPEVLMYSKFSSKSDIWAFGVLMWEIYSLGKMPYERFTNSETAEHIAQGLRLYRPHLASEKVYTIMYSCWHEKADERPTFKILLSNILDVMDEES
# [4] = target: T1, BTK; test: BTK degradation in Mino cells, dose-response Western blot; format: cell-based; parameters: endogenous in cells; host or cells: Mino (ATCC CRL-3000), Ramos (ATCC CRL-1596), K562 (NCI-60); conditions: MINO, 24 h, read-out: Dmax (maximal degradation)
# Protocol: We evaluated the ability of the compounds to induce degradation of BTK in human cell lines. We incubated Mino cells with the compounds and followed BTK levels after 24 h by Western blot (Figure 2, Supporting Figure 2). […] The irreversible acrylamides IR-1 and IR-2 and the cyanoacrylamide RC-3 followed closely with DC50’s under 10 nM and Dmax near 90%. […] We conducted metabolomics studies to estimate if cellular penetration and stability may contribute to the relative potencies (Supporting Table 2). NC-1 and RC-3 reached an effective concentration that was ∼2 times higher than IR-2 and ∼10 times higher than RC-2. Therefore, the lower potency of RC-2 can at least in part be explained by lower permeability or stability.
# Figure 2 Efficient BTK degradation in cells. (A) Western blot evaluation of BTK levels in Mino cells in response to various concentrations of RC-2, IR-2, NC-1, and RC-3, after 24 h of incubation. (B) Quantification of BTK levels in (A) by normalization to the β-actin house-keeping gene in Mino cells. DC50 and Dmax were calculated by fitting the data to a second-order polynomial using Prism software. (C) Summary of the DC50 and Dmax values for the PROTACs in Mino cells described in (A) and Supporting Figure 2. TEXT PRINTED IN THE PICTURE: (C) NC-1: DC50 (nM): 2.2; Dmax (%): 97 | (C) IR-1: DC50 (nM): 8.6; Dmax (%): 91 | (C) IR-2: DC50 (nM): 1.9; Dmax (%): 88 | (C) RC-1: DC50 (nM): 10; Dmax (%): 68 | (C) RC-2: DC50 (nM): 35; Dmax (%): 66 | (C) RC-3: DC50 (nM): 6; Dmax (%): 85
# as §1
# [5] = target: T1, BTK; test: Mechanism validation: pretreatment with ibrutinib, thalidomide-OH or bortezomib before PROTAC in Mino cells; format: cell-based; parameters: endogenous in cells; host or cells: Mino (ATCC CRL-3000), Ramos (ATCC CRL-1596), K562 (NCI-60)
# T1 sequence (Q06187 whole entry): as the sequence (Q06187 whole entry, species assumed) above
smiles,measurement,setting,value
N#CC(=CCOCCOCCOCCOCCOCCOc1cccc2c1C(=O)N(C1CCC(=O)NC1=O)C2=O)C(=O)N1CCCC(n2nc(-c3ccc(Oc4ccccc4)cc3)c3c(N)ncnc32)C1 (stereo not drawn) [RC-1],time to degrade BTK / reach maximum degradation,[1],6 to 24 h
same,BTK degradation (abundance of BTK by Western blot),[2],consistent prominent levels of degradation in both cell lines
same,IC50,[3],12 nM
same,Dmax,[4],68%
CC(C)C[C@H](NC(=O)[C@H](Cc1ccccc1)NC(=O)c1cnccn1)B(O)O [bortezomib],effect of proteasome inhibitor on PROTAC-mediated BTK degradation,"[5]; 1 h bortezomib, then PROTAC 4 h",significantly inhibited degradation
O=C1CCC(N2C(=O)c3cccc(O)c3C2=O)C(=O)N1 (stereo not drawn) [thalidomide-OH],effect of pretreatment on PROTAC-mediated BTK degradation,"[5]; 2 h pretreatment, then PROTAC 24 h",hindered BTK degradation
